Reference: US20210221866A1, “PROTEASE-RESISTANT LIPIDATED GLP-1 ANALOGS” (MEDIMMUNE LIMITED, priority 2015, published 2021)
Where two headings read alike, the source gives them in different places. Numbered stars: 1 amine (or outer) side, 2 acyl side, 3 side chain; on linkers, the order of the positions; unused ones are H or OH. Square brackets hold non-standard residues; d marks the D form. Side chains are listed from the residue outwards. Peptide text beside a SMILES is read from it. * marks the point of attachment. γGlu = O=C(O)[C@H](CCC(=O)[*:2])N[*:1]; Palmitoyl = CCCCCCCCCCCCCCCC(=O)*; αMeF = C[C@](N)(Cc1ccccc1)C(=O)O; Myristoyl = CCCCCCCCCCCCCC(=O)*; αMeK = C[C@](N)(CCCCN)C(=O)O; Lauroyl = CCCCCCCCCCCC(=O)*; αMeS = C[C@](N)(CO)C(=O)O; AEEA = NCCOCCOCC(=O)O; Aib = CC(C)(N)C(=O)O

Tests used:
[1] = target: T1, human glucagon receptor (GCGR) (Homo sapiens, UniProt P47871); experiment: cAMP assay, human GCGR cells; type: cell-based; details: Table 9, bis-lipidated peptides
T1 construct: expressed in transfected cells; host or cells: HEK293 cells or CHO cells
Protocol: (§1) Sample dilutions are made in duplicate.
(§2) A frozen cryo-vial of cells expressing the receptor of interest is thawed rapidly in a water-bath, transferred to pre-warmed assay buffer and spun at 240×g for 5 minutes. Cells are re-suspended in assay buffer at a batch-dependent optimized concentration (e.g. hGCGR cells at 2×10^5 cells/ml, hGLP-1R and hGIPR cells at 1×10^5 cells/ml).
(§3) To this, 5 μL cell suspension is added and the plates incubated at room temperature for 30 minutes.
(§4) cAMP levels are measured using a commercially available cAMP dynamic 2 HTRF kit (Cisbio, Cat #62AM4PEJ), following the two step protocol as per manufacturer's recommendations. In brief; anti-cAMP cryptate (donor fluorophore) and cAMP-d2 (acceptor fluorophore) are made up separately by diluting each 1/20 in conjugate & lysis buffer provided in the kit. 5 μL anti-cAMP cryptate is added to wells of the assay plate, and 5 μL cAMP-d2 is added to wells except non-specific binding (NSB) wells, to which conjugate and lysis buffer are added. […] EC50 values of the synthetic peptides determined in cAMP assays are then determined.
(§5) Data is transformed to % Delta F as described in the manufacturer's guidelines and analyzed by 4-parameter logistic fit to determine EC50 values. […] To compare the balance of activities at the GLP-1R and GCGR between different peptides and across different conditions, these can be correlated, where the EC50's are related to those of comparator peptides.

[2] = target: T2, human glucose-dependent insulinotropic peptide receptor (GIPR) (Homo sapiens, UniProt P48546); experiment: cAMP assay, human GIPR cells; type: cell-based; details: Table 9, bis-lipidated peptides
T2 construct: expressed in transfected cells; host or cells: HEK293 cells or CHO cells
T2 sequence (P48546 22-466): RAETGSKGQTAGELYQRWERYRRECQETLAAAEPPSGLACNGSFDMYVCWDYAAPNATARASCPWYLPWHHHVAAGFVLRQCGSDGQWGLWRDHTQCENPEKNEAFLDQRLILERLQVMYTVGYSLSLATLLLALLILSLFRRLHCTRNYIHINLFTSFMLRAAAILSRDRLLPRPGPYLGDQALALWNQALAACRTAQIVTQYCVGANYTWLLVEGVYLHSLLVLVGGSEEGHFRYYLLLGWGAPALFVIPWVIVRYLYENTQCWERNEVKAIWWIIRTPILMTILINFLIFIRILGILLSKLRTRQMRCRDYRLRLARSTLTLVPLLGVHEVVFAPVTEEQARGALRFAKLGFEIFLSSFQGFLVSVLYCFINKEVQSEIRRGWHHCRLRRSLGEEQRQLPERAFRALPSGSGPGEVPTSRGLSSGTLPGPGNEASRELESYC
Protocol: as §1, §2, §3, §4, §5

[3] = first replicate, read-out: Primary assay EC50 Gluc-R (n1)
[4] = second replicate, read-out: Primary assay EC50 Gluc-R (n2)
[5] = first replicate, read-out: Primary assay EC50 GIP-R (n1)
[6] = second replicate, read-out: Primary assay EC50 GIP-R (n2)

Measured: EC50

T1 sequence (P47871 26-477): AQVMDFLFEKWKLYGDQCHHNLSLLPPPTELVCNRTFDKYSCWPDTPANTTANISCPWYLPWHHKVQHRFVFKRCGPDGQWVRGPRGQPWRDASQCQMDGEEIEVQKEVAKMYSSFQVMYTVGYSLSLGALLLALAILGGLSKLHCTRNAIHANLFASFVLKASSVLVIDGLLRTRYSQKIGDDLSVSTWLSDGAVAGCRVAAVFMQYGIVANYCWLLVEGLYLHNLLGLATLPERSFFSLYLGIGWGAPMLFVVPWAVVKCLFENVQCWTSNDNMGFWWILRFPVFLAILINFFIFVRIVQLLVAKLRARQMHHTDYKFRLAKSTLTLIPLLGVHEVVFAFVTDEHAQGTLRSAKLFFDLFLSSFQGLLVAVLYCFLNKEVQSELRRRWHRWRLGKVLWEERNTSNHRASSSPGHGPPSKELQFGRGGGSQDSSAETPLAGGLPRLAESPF

CCCCCCCCCCCC(=O)N[C@@H](CCC(=O)NCCOCCOCC(=O)NCCOCCOCC(=O)NCCCC[C@H](NC(=O)[C@H](CO)NC(=O)[C@](C)(CO)NC(=O)[C@@H](NC(=O)[C@H](CC(=O)O)NC(=O)[C@H](CO)NC(=O)[C@@H](NC(=O)[C@](C)(Cc1ccccc1)NC(=O)[C@H](CO)NC(=O)CNC(=O)[C@H](CCC(=O)O)NC(=O)C(C)(C)NC(=O)[C@@H](N)Cc1c[nH]cn1)[C@@H](C)O)C(C)C)C(=O)N[C@@H](CC(C)C)C(=O)N[C@@H](CCC(=O)O)C(=O)NCC(=O)N[C@@H](CCC(=O)O)C(=O)N[C@@H](C)C(=O)N[C@@H](C)C(=O)N[C@@](C)(CCCCN)C(=O)N[C@@H](CCC(=O)O)C(=O)N[C@@H](Cc1ccccc1)C(=O)N[C@H](C(=O)N[C@@H](CCCCNC(=O)COCCOCCNC(=O)COCCOCCNC(=O)CC[C@H](NC(=O)CCCCCCCCCCC)C(=O)O)C(=O)N[C@@H](Cc1c[nH]c2ccccc12)C(=O)N[C@H](C(=O)N[C@H](C(=O)N[C@@H](CCC(=O)O)C(=O)NCC(=O)NCC(N)=O)C(C)C)C(C)C)[C@@H](C)CC)C(=O)O [compound 262] (H-H[Aib]EGS[αMeF]TSDV[αMeS]SK([AEEA-AEEA-γGlu-Lauroyl])LEGEAA[αMeK]EFIK([AEEA-AEEA-γGlu-Lauroyl])WVVEGG-NH2; N-terminus assumed)
≥ 22.5 nM: [1]; [3] | [1]; [4] | [2]; [5] | [2]; [6]

CCCCCCCCCCCCCCCC(=O)N[C@@H](CCC(=O)NCCOCCOCC(=O)NCCOCCOCC(=O)NCCCC[C@H](NC(=O)[C@H](C)NC(=O)[C@@H](NC(=O)[C@](C)(Cc1ccccc1)NC(=O)[C@H](CCC(=O)O)NC(=O)[C@](C)(CCCCN)NC(=O)[C@H](C)NC(=O)[C@H](C)NC(=O)[C@H](CCC(=O)O)NC(=O)CNC(=O)[C@H](CCC(=O)O)NC(=O)[C@H](CC(C)C)NC(=O)[C@H](CCCCNC(=O)COCCOCCNC(=O)COCCOCCNC(=O)CC[C@H](NC(=O)CCCCCCCCCCCCCCC)C(=O)O)NC(=O)[C@H](CO)NC(=O)[C@](C)(CO)NC(=O)[C@@H](NC(=O)[C@H](CC(=O)O)NC(=O)[C@H](CO)NC(=O)[C@@H](NC(=O)[C@](C)(Cc1ccccc1)NC(=O)[C@H](CO)NC(=O)CNC(=O)[C@H](CCC(=O)O)NC(=O)C(C)(C)NC(=O)[C@@H](N)Cc1c[nH]cn1)[C@@H](C)O)C(C)C)[C@@H](C)CC)C(=O)N[C@H](C(=O)N[C@H](C(=O)N[C@@H](CCC(=O)O)C(=O)NCC(=O)NCC(N)=O)C(C)C)C(C)C)C(=O)O [compound 409] (H-H[Aib]EGS[αMeF]TSDV[αMeS]SK([AEEA-AEEA-γGlu-Palmitoyl])LEGEAA[αMeK]E[αMeF]IAK([AEEA-AEEA-γGlu-Palmitoyl])VVEGG-NH2; N-terminus assumed)
≥ 21.5 nM: [1]; [3] | [1]; [4] | [2]; [5] | [2]; [6]

CCCCCCCCCCCCCC(=O)N[C@@H](CCC(=O)NCCOCCOCC(=O)NCCOCCOCC(=O)NCCCC[C@H](NC(=O)[C@H](C)NC(=O)[C@@H](NC(=O)[C@](C)(Cc1ccccc1)NC(=O)[C@H](CCC(=O)O)NC(=O)[C@](C)(CCCCN)NC(=O)[C@H](C)NC(=O)[C@H](C)NC(=O)[C@H](CCC(=O)O)NC(=O)CNC(=O)[C@H](CCC(=O)O)NC(=O)[C@H](CC(C)C)NC(=O)[C@H](CCCCNC(=O)COCCOCCNC(=O)COCCOCCNC(=O)CC[C@H](NC(=O)CCCCCCCCCCCCC)C(=O)O)NC(=O)[C@H](CO)NC(=O)[C@](C)(CO)NC(=O)[C@@H](NC(=O)[C@H](CC(=O)O)NC(=O)[C@H](CO)NC(=O)[C@@H](NC(=O)[C@](C)(Cc1ccccc1)NC(=O)[C@H](CO)NC(=O)CNC(=O)[C@H](CCC(=O)O)NC(=O)C(C)(C)NC(=O)[C@@H](N)Cc1c[nH]cn1)[C@@H](C)O)C(C)C)[C@@H](C)CC)C(=O)N[C@H](C(=O)N[C@H](C(=O)N[C@@H](CCC(=O)O)C(=O)NCC(=O)NCC(N)=O)C(C)C)C(C)C)C(=O)O [compound 408] (H-H[Aib]EGS[αMeF]TSDV[αMeS]SK([AEEA-AEEA-γGlu-Myristoyl])LEGEAA[αMeK]E[αMeF]IAK([AEEA-AEEA-γGlu-Myristoyl])VVEGG-NH2)
≥ 21.5 nM: [1]; [3] | [1]; [4] | [2]; [5] | [2]; [6]
